# Test results: US20070232527A1, “Medicaments and methods combining a HCV protease inhibitor and an AKR competitor” (priority 2005, published 2007)
# Where two headings read alike, the source gives them in different places.
# Legend:
# [1] = target: T1, AKR1C3 (Homo sapiens, UniProt P42330); conditions: tibolone as a substrate; cited from earlier work
# T1 sequence (P42330 1-323): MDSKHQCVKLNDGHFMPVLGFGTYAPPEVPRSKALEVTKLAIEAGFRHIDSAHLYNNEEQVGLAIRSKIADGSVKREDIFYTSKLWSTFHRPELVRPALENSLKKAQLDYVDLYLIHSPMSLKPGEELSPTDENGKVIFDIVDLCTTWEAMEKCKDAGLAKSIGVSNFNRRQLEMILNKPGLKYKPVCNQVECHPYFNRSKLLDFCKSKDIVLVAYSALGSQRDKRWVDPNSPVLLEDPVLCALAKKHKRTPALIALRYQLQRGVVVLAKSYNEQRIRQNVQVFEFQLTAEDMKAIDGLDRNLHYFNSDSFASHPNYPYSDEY
# [2] = target: T2, AKR1C2 (Homo sapiens, UniProt P52895); conditions: tibolone as a substrate; cited from earlier work
# T2 sequence (P52895 1-323): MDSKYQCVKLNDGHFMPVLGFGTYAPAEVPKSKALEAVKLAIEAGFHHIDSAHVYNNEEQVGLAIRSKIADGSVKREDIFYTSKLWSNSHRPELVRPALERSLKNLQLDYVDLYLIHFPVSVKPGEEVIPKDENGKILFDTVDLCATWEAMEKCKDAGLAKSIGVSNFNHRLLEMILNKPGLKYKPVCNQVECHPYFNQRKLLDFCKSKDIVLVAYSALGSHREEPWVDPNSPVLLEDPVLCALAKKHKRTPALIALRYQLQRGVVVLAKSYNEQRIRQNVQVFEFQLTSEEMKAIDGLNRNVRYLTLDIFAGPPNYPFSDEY
# [3] = test system: Human liver S9; test: Inhibition of metabolism of 14C-Formula Ia to Formula Ia′ in human liver S9; assay type: in vitro ADME; conditions: S9; concentration not given
# [4] = test system: human liver cytosol; test: Inhibition of metabolism of 14C-Formula Ia to Formula Ia′ in human liver cytosol
# Procedure: (§3) All incubations contained 3 mM magnesium chloride and NADPH-generating system in 0.5 mL of 50 mM potassium phosphate buffer, pH 7.4. Prior to the addition of drug, incubation mixtures were preincubated for 2 min at 37° C. […] The incubation mixtures were vortexed and centrifuged (˜10,000 g) at 4° C. for 10 min; supernatants were analyzed by HPLC coupled with radiometric detector. Heat activated S9 cofactor or mitochondria were used as control. For LC-MS analysis, supernatants were concentrated in SpeedVac for 3 hrs. Incubation volumes were 0.5 mL and the final concentration of the organic solvents in the incubation system was less than 1% (v/v).
# (§4) The mobile phase consisted of 10 mM ammonium acetate adjusted to pH 7.0 with 1% ammonium hydroxide (A) and 100% methanol (B).
# [5] = test system: cytosolic enzymes that convert Formula Ia to Formula Ia′; test: in vitro; conditions: human
# Procedure: as §3, §4
# [6] = test system: cytosolic enzymes that form the metabolite of Formula Ia; test: in vitro; conditions: monkey
# [7] = in vivo; cited from earlier work
# [8] = target: T1, AKR1C3; test: Incubation with S9 fraction of recombinant human AKR1C3; assay type: in vitro ADME; parameters: made in house; conditions: 20 μM 14C-radiolabeled compound; S9 2.5 mg protein/mL; NADPH
# Procedure: (§1) Recombinant human AKRs (AKR1C2, AKR1C3 and AKR1C4) were grown, sonicated and centrifuged at ˜10,000 g to obtain S9 fractions. Incubations of ^14C-radiolabeled compound of Formula Ia, ^14C-radiolabeled compound of Formula Ib and ^14C-radiolabeled compound of Formula Ic (all at 20 μM) with S9-fractions from three recombinant human AKRs (2.5 mg protein/mL) were conducted as described above. [drawing 161]
# (§2) The samples were analyzed by HPLC-coupled with radiometric detector and confirmed by LC-MS.
# [9] = target: T2, AKR1C2; test: Incubation with S9 fraction of recombinant human AKR1C2; assay type: in vitro ADME; parameters: made in house; conditions: 20 μM 14C-radiolabeled compound; S9 2.5 mg protein/mL; NADPH
# Procedure: as §1, §2
# [10] = In vivo inhibition study of Formula Ia with AKR competitor diflunisal, plasma PK; conditions: cynomolgus monkeys plasma; as a function of diflunisal dose 0, 62.5, 125, 250 mg
# Procedure: An in vivo study was conducted in cynomolgus monkeys where 200 mg Formula Ia and 0 (control), 62.5, 125, or 250 mg diflunisal (Dolobid) was administered as illustrated below. All six monkeys were first dosed with Formula Ia with blood samples collected over a 12 hr period for plasma pharmacokinetics (PK) of Formula Ia prior to administration of diflunisal (dose-escalation). Four doses of diflunisal were subsequently administered every 12 hr with Formula Ia administered at each 4th diflunisal dose after which blood samples were collected for PK assessment of Formula Ia. The following chart summarizes the timing of Formula Ia and diflunisal administration.
# [11] = test system: human liver cytosol; test: Incubation of Formula Ia or Formula XXVII in human liver cytosol with AKR competitor (LC-MS, M+2 metabolite); assay type: in vitro ADME
# Procedure: Prior to the addition of drug, the incubation mixture was preincubated for 2 min at 37° C. […] Human liver microsomes and cytosol without NADPH served as negative controls. Parallel incubations with the compound of Formula Ia were used as positive controls. […] All incubations were performed as described previously for human liver cytosols. […] Parallel incubations with the compound of Formula Ia were used as positive controls.
# [12] = Clinical study of the effect of ibuprofen on pharmacokinetics of Formula Ia; assay type: in vivo; conditions: human, single 400 mg dose PO fasted, alone or with ibuprofen 600 mg TID; for AUC: plasma, po, 400 mg
# Procedure: The study was conducted in an open-label, randomized, 3-period, 2-sequence crossover manner (FIG. 6). During Period 1, all 12 subjects were administered a single 400 mg dose of Formula Ia. During Periods 2 and 3, subjects received multiple doses of ibuprofen (600 mg TID) in a randomized sequence. The ibuprofen was administered beginning on Day 1 (3 days prior to Formula Ia administration) and continued through Day 6. A single dose of Formula Ia was administered on Day 4 (2 hours after administration of the AM dose of ibuprofen). Plasma samples for pharmacokinetic and metabolite analyses of Formula Ia was collected at predose (0 hour), 0.5, 1, 1.5, 2, 2.5, 3, 4, 5, 6, 7, 8, 9, 10, 12, 24, 36, 48, and 72 hour postdose for each period. (The 48 and 72 hour postdose samples for Period 1 was collected in an outpatient setting). In Periods 2 and 3, additional blood samples were collected immediately prior to dosing of the Formula Ia on Day 4 and two hours post ibuprofen administration on Day 5 for determination of ibuprofen concentration.
# Treatment A: Formula Ia (4×100 mg capsules); single dose, PO following an overnight fast, administered on Day 1 or Period 1.
# Treatment C: Ibuprofen 600 mg; PO, TID from Day 1 to Day 6 Formula Ia (4×100 mg capsules); single dose, PO following an overnight fast, administered on Day 4 (2 hours after the AM ibuprofen dose).
# Subjects received a single dose of Formula Ia on Day 1 of Period 1. In Period 2 and Period 3, subjects were treated for 6 days with ibuprofen and received a single dose of Formula Ia on Day 4 of each period. There were at least 7 days between administration of Formula Ia in Period 1 and Period 2 and at least 14 days between administration of Formula Ia in Period 2 and 3.
# The proportion of subjects with plasma concentrations above the in vitro IC50 and IC90 for the HCV replicon at each time point was determined. This plasma concentration data was used to estimate the following primary pharmacokinetic variables for the determination of bioavailability comparisons: • AUC—Area under the plasma concentration-time. • Cmax—Maximum observed plasma concentration. • Tmax—Time to maximum observed plasma concentration. • t1/2—Terminal phase half-life.
compound,measurement,setting,value
"CC(CCC(=O)O)C1CCC2C3C(O)CC4CC(O)CCC4(C)C3CCC12C (stereo not drawn) [5beta-cholanic acid 3alpha, 7-alpha-diol]",IC50,[1],74.4 µM
same,IC50,[2],0.21 µM
"O=[N+]([O-])c1ccc(OP(=O)(O)Oc2ccc([N+](=O)[O-])cc2)cc1 [BNPP, bis(4-nitrophenyl)-phosphate]",inhibited formation of the compound of Formula Ia′,[3],57.4%
same,% Inhibition on Metabolite Formation of Compound Formula Ia,"[4]; Table 4, human liver cytosol, inhibitor 1000 μM, 2 hr incubation",63.4%
same,inhibited formation of the compound of Formula Ia′,"[4]; cytosol, concentration not given",63.4%
O=C(O)c1cc(-c2ccc(F)cc2F)ccc1O [Diflunisal],IC50 at 120 min,[5]; pH 7.4,1 mg/L
same,"inhibition at 2 h, 200 µM","[5]; pH 7.4, % of Inhibition on Metabolite Formation of Compound Formula Ia",89.4%
same,IC50,[6],11 µM
same,Ki,"[4]; human cytosol, assuming the liver to plasma ratio equals 1",0.5 mg/L
same,Vdss,[7],0.1 L/kg
same,protein binding,[7],about 99%
"CC(C)(C)NC(=O)N[C@H](C(=O)N1C[C@H]2[C@@H]([C@H]1C(=O)NC(CC1CCC1)C(=O)C(N)=O)C2(C)C)C(C)(C)C (stereo partly drawn) [Formula Ia, (1R,5S)—N-[3-Amino-1-(Cyclobutylmethyl)-2,3-Dioxopropyl]-3-[2(S)-[[[(1,1-Dimethylethyl)Amino]Carbonyl]Amino]-3,3-Dimethyl-1-Oxobutyl]-6,6-Dimethyl-3-Azabicyclo[3.1.0]Hexan-2(S)-Carboxamide]",metabolism by recombinant AKR1C3,[8],yielded compound of Formula Ia′
same,metabolism by recombinant AKR1C2,[9],yielded compound of Formula Ia′
same,AUC ratio (Formula Ia′ to AUC for the compound),[10],decline
same,1ST PARENT PEAK AREA,[11]; HL Cytosol w/ NADPH + 50 uM Mefenamic acid,6.19E+07
same,1ST PARENT PEAK AREA,[11]; HL Cytosol w/ NADPH + 100 uM Flufenamic acid,6.33E+07
same,1ST PARENT PEAK AREA,[11]; HL Cytosol w/ NADPH + 100 uM Phenolphthalein,6.23E+07
same,1ST PARENT PEAK AREA,[11]; HL Cytosol w/ NADPH + 200 uM Diflunisal,6.10E+07
same,1ST PARENT PEAK AREA,[11]; HL Cytosol w/ NADPH Vehicle Control (no inhibitor),3.95E+07
same,1ST PARENT PEAK AREA,"[11]; HL Cytosol w/o NADPH, 20 μM, 60 min",7.41E+07
same,AUC,"[12]; read-out: AUC(all), Mean (% CV)",2.04 µg·h/mL
same,AUC,"[12]; read-out: AUC(l), Mean (% CV)",2.07 µg·h/mL
same,AUC(0-t),"[12]; plasma Formula Ia, read-out: AUC(last), Mean (% CV)",2 µg·h/mL
same,Cmax,"[12]; plasma Formula Ia, read-out: Cmax, Mean (% CV)",0.571 µg/mL
same,MRT,"[12]; plasma Formula Ia, read-out: MRT(l), Mean (% CV)",6.57 h
same,Tmax,"[12]; plasma Formula Ia, read-out: Tmax (median)",1.75 h
same,half-life,"[12]; plasma Formula Ia, read-out: t1/2, Mean (% CV) (converted)",9.11 h
